Data on 2 compounds can be found in patent publication US20020169394A1, “Integrated tissue poration, fluid harvesting and analysis device, and method therefor” (priority 1993, published 2002).

Structures are written as SMILES.

In one data set the test system is subjects left forearm. Briefly: Lidocaine delivery through porated stratum corneum with ultrasound; numbness assessed by rubbing a 30 gauge wire across the test site. It counts as in vivo, human. The source says: A drawing of an illustrative delivery apparatus 300 is shown in FIG. 50, wherein the apparatus comprises a housing 304 enclosing a reservoir 308 for holding a drug-containing solution 312. The top portion of the housing comprises an ultrasonic transducer 316 for providing sonic energy to aid in transporting the drug-containing solution through micropores; 320 in the stratum corneum 324. A port 328 in the ultrasonic transducer permits application of pressure thereto for further aiding in transporting the drug-containing solution through the micropores in the stratum corneum. The delivery apparatus is applied to a selected area of an individual's skin such that it is positioned over at least one, and preferably a plurality, of micropores. An adhesive layer 332 attached to a lower portion of the housing permits the apparatus to adhere to the skin such that the drugcontaining solution in the reservoir is in liquid communication with the micropores.
Five subjects were tested for the effectiveness of drug delivery using poration together with ultrasound. The experiment used two sites on the subjects left forearm about three inches apart, equally spaced between the thumb and upper arm. The site near the thumb will be referred to as site 1 the site furthest from the thumb will be referred to as site 2. […] Site 2 was porated with 24 holes spaced 0.8 millimeters apart in a grid contained within a 1 cm diameter circle. The micropores in Site 2 were generated according to the procedure of Example 6. […] Ultrasound applications were made with a custom manufactured Zevex ultrasonic transducer assembly set in burst mode with 0.4 Volts peak to peak input with 1000 count bursts occurring at 10 Hz with a 65.4 kHz fundamental frequency, i.e., a pulse modulated signal with the transducer energized for 15 millisecond bursts, and then turned off for the next 85 milliseconds. The measured output of the amplifier to the transducer was 0.090 watts RMS.
Experiments were executed on both sites, Site 1 for 10 to 12 minute duration and Site 2 for two 5 minute duration intervals applied serially to the same site. Both sites were assessed for numbness using a scale of 10 to 0, where 10 indicated no numbness and 0 indicated complete numbness as reported by the test subjects.

Data set [1] concerns human cadaver skin samples (stratum corneum). It counts as in vitro ADME. The method, then:
Modulated sonic energy and chemical enhancers were tested for their ability to control transdermal flux on human cadaver skin samples. In these tests, the epidermal membrane had been separated from the human cadaver whole skin by the heat-separation method of Example 1. The epidermal membrane was cut and placed between two halves of the permeation cell with the stratum corneum facing either the upper (donor) compartment or lower (receiver) compartment. Modified Franz cells were used to hold the epidermis, as shown in FIG. 2 of U.S. Pat. No. 5,445,611. Each Franz cell consists of an upper chamber and a lower chamber held together with one or more clamps. The lower chamber has a sampling port through which materials can be added or removed. A sample of stratum corneum is held between the upper and lower chambers when they are clamped together. The upper chamber of each Franz cell is modified to allow an ultrasound transducer to be positioned within 1 cm of the stratum corneum membrane. Methylene blue solution was used as an indicator molecule to assess the permeation of the stratum corneum. A visual record of the process and results of each experiment was obtained in a time stamped magnetic tape format with a video camera and video cassette recorder (not shown). Additionally, samples were withdrawn for measurement with an absorption spectrometer to quantitate the amount of dye which had traversed the stratum corneum membrane during an experiment. Chemical enhancers suitable for use could vary over a wide range of solvents and/or cell envelope disordering compounds as noted above. The specific enhancer utilized was: ethanol/glycerol/water/glycerolmonooleate/methyl laurate in 50/30/15/2.5/2.5 volume ratios. The system for producing and controlling the sonic energy included a programmable 0-30 MHz arbitrary waveform generator (Stanford Reserach Systems Model DS345), a 20 watt 0-30 MHz amplifier, and two unfocused ultrasound immersion transducers having peak resonances at 15 and 25 MHz, respectively. […]

Where [2] appears, read: Site 2 porated plus ultrasound, after the second application.

In the case of `CCN(CC)CC(=O)Nc1c(C)cccc1C` [lidocaine], the “numbness, scale of 10 to 0 (10 no numbness, 0 complete numbness)” value is 3 with subjects left forearm (Site 1 control, no micro-poration or sonic energy, at approximately 20 minutes); 7 to 10 in the data set on subjects left forearm (Site 1 control: lidocaine and enhancer solution, no micro-poration or sonic energy, at 10 to 12 minutes, 5 subjects); 0 to 1 in the data set with subjects left forearm (Site 2 porated with 24 holes plus low level ultrasound, in the 1 cm circle containing the porations, first 5 minute application). In addition, the “diameter of totally numb circle” value with subjects left forearm (Site 2 porated plus ultrasound, after the second 5 minute application) is “about 12 cm”. In the data set on subjects left forearm (setting [2]), the “diameter of numb oval pattern parallel to the forearm” value is 2 to 6 cm. Besides, the “diameter of numb oval pattern perpendicular to the forearm” value in the data set with subjects left forearm (setting [2]) is recorded as 2 to 2.5 cm.

For the compound `CN(C)c1ccc2nc3ccc(=[N+](C)C)cc-3sc2c1` [methylene blue], in data set [1], the “visual evidence of dye flux through the stratum corneum” value is given as “No visual evidence of dye flux” and the “visually detectable permeation of the stratum corneum” value is “no visually detectable permeation”. The “level of dye solution in 2 ml of receiver medium (no visual indication of dye flux)” value in data set [1] (human, 5 min) was < 0.0015 % (v/v).
